From patent US9969742B2, “Imidazotriazinone compounds” (Ironwood Pharmaceuticals, Inc., priority 2012, dated 2018)
Like-named read-outs stand apart in the source and are kept apart here.

How the values were obtained:
Assay type in all cases: biochemical
PDE1B = molecular target: T1, PDE1B (Homo sapiens, UniProt Q01064); test: Phosphodiesterase enzyme screening assay, PDE1B
T1 construct: purchased Reaction Biology Corporation, Malvern, Pa
Method in brief: (§1)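 Microfluidic mobility-shift assay; values from quadruplicate wells relative to controls. Conditions: 4.0 μM cGMP, 5 mM MgCl2, pH 7.5 HEPES, 1 h R.T., EDTA stop.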

PDE9A2 = molecular target: T2, PDE9A2 (Homo sapiens, UniProt O76083); test: Phosphodiesterase enzyme screening assay, PDE9A2; details: read-out: Band (PDE9A2 IC50)
T2 construct: purchased Reaction Biology Corporation, Malvern, Pa
T2 sequence (O76083 1-533 isoform O76083-2): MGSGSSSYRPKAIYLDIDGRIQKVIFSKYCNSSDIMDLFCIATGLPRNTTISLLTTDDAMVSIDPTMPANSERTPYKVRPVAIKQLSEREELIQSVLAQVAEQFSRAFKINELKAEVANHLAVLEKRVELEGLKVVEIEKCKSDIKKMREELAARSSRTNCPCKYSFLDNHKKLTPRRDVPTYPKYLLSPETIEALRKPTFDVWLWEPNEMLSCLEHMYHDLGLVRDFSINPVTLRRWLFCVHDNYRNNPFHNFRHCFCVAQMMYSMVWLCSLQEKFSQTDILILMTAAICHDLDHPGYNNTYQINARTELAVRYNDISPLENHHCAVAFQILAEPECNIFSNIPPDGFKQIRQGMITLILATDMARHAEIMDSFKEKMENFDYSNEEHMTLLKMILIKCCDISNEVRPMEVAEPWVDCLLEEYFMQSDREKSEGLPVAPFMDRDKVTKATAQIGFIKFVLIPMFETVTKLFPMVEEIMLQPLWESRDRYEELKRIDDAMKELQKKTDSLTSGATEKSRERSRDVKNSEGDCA
Method in brief: as §1

PDE1A = molecular target: T3, PDE1A (Homo sapiens, UniProt P54750); test: Phosphodiesterase enzyme screening assay, PDE1A
T3 construct: purchased Reaction Biology Corporation, Malvern, Pa
T3 sequence (P54750 whole entry): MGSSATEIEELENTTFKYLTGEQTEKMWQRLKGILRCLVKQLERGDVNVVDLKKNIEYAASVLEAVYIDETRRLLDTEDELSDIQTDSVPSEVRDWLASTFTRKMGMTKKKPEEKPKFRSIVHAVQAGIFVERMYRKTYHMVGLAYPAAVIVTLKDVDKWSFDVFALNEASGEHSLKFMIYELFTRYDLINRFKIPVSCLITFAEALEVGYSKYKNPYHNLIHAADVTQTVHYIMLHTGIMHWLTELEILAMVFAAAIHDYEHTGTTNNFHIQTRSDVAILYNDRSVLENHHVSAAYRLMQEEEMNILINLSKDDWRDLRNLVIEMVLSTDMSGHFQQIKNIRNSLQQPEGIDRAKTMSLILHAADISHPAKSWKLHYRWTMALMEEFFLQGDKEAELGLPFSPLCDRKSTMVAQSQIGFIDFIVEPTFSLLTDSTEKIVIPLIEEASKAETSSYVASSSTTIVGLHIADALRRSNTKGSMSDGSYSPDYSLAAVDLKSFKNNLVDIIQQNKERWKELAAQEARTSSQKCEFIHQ
Method in brief: as §1

[1] = Table 2, ratio of IC50 values, value greater than 1 indicates greater selectivity for PDE9A2
[2] = Table 1, ratio of IC50 values, value greater than 1 indicates greater selectivity for PDE9A2
[3] = Table 1, 10 concentrations, 4.0 μM cGMP substrate, 1 hour at R.T.
[4] = ratio of IC50 values PDE1B / PDE9A2, value greater than 1 = greater selectivity for PDE9A2
[5] = 4.0 μM cGMP substrate, 1 hour at R.T.
[6] = ratio of IC50 values PDE1A / PDE9A2, value greater than 1 = greater selectivity for PDE9A2
[7] = ratio of IC50 values, value greater than 1 indicates greater selectivity for PDE9A2

T1 sequence (Q01064 whole entry): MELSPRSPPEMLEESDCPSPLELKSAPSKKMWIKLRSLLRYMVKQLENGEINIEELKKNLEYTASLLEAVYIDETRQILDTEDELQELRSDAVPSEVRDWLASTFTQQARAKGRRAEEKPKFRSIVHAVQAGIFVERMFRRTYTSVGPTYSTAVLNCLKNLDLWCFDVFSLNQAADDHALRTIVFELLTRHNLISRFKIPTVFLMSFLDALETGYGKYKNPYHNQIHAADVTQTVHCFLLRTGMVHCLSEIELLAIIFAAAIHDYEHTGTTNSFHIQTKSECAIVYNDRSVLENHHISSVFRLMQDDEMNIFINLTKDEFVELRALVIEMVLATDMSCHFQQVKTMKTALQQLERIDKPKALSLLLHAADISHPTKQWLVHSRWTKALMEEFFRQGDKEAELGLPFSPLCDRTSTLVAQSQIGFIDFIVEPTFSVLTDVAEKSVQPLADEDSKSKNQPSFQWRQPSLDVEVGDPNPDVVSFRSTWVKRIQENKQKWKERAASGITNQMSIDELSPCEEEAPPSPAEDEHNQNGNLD

SMILES	PDE1B selectivity (versus PDE9A2) (PDE1B; [2])	IC50 (PDE9A2; [3])	PDE1A selectivity (versus PDE9A2) (PDE1A; [2])	other results
CC1CN(Cc2ccccc2)CC1c1nn2c(-c3ccccc3)ncc2c(=O)[nH]1 (single isomer, unassigned; (+)) [(+)-2-((3,4-trans)-1-benzyl-4-methylpyrrolidin-3-yl)-7-phenylimidazo[5,1-f][1,2,4]triazin-4(3H)-one]				PDE1B selectivity (versus PDE9A2) (PDE1B; ratio of IC50 values, PDE1B versus PDE9A2, value greater than 1 indicates greater selectivity for PDE9A2): 12; IC50 (PDE9A2): < 1000 nM; PDE1A selectivity (versus PDE9A2) (PDE1A; ratio of IC50 values, PDE1A versus PDE9A2, value greater than 1 indicates greater selectivity for PDE9A2): 4
CC1CN(CCc2cncnc2)CC1c1nn2c(C3CCOCC3)ncc2c(=O)[nH]1 (single isomer, unassigned; (+)) [(+)-2-((3,4-trans)-4-methyl-1-(2-(pyrimidin-5-yl)ethyl)pyrrolidin-3-yl)-7-(tetrahydro-2H-pyran-4-yl)imidazo[5,1-f][1,2,4]triazin-4(3H)-one]				PDE1B selectivity (versus PDE9A2) (PDE1B; [1]): 89; IC50 (PDE9A2; Table 2, 10 concentrations, 4.0 μM cGMP substrate, 1 hour at R.T.): < 1000 nM; PDE1A selectivity (versus PDE9A2) (PDE1A; [1]): 71
CC1CN(Cc2ccccc2N2CCCC2)CC1c1nn2c(C3CCOCC3)ncc2c(=O)[nH]1 (single isomer, unassigned; (+)) [(+)-2-((3,4-trans)-4-methyl-1-(2-(pyrrolidin-1-yl)benzyl)pyrrolidin-3-yl)-7-(tetrahydro-2H-pyran-4-yl)imidazo[5,1-f][1,2,4]triazin-4(3H)-one]	213	< 1000 nM	184	
CC1CN(Cc2ccccc2OC(F)(F)F)CC1c1nn2c(C3CCOCC3)ncc2c(=O)[nH]1 (single isomer, unassigned; (+)) [(+)-2-((3,4-trans)-4-methyl-1-(2-(trifluoromethoxy)benzyl)pyrrolidin-3-yl)-7-(tetrahydro-2H-pyran-4-yl)imidazo[5,1-f][1,2,4]triazin-4(3H)-one]				PDE1B selectivity (versus PDE9A2) (PDE1B; [4]): 24; IC50 (PDE9A2; [5]): < 1000 nM; PDE1A selectivity (versus PDE9A2) (PDE1A; [6]): 173
CC1CN(Cc2ccccc2C(F)(F)F)CC1c1nn2c(C3CCOCC3)ncc2c(=O)[nH]1 (single isomer, unassigned; (+)) [(+)-2-((3,4-trans)-4-methyl-1-(2-(trifluoromethyl)benzyl)pyrrolidin-3-yl)-7-(tetrahydro-2H-pyran-4-yl)imidazo[5,1-f][1,2,4]triazin-4(3H)-one]	16	< 1000 nM	73	
Cc1ccccc1CN1CC(C)C(c2nn3c(C4CCOCC4)ncc3c(=O)[nH]2)C1 (single isomer, unassigned; (+)) [(+)-2-((3,4-trans)-4-methyl-1-(2-methylbenzyl)pyrrolidin-3-yl)-7-(tetrahydro-2H-pyran-4-yl)imidazo[5,1-f][1,2,4]triazin-4(3H)-one]	105	< 1000 nM	249	
CC1CN(Cc2cccc(N3CCCC3)c2)CC1c1nn2c(C3CCOCC3)ncc2c(=O)[nH]1 (single isomer, unassigned; (+)) [(+)-2-((3,4-trans)-4-methyl-1-(3-(pyrrolidin-1-yl)benzyl)pyrrolidin-3-yl)-7-(tetrahydro-2H-pyran-4-yl)imidazo[5,1-f][1,2,4]triazin-4(3H)-one]	1190	< 1000 nM	700	
CC1CN(Cc2cccc(OC(F)(F)F)c2)CC1c1nn2c(C3CCOCC3)ncc2c(=O)[nH]1 (single isomer, unassigned; (+)) [(+)-2-((3,4-trans)-4-methyl-1-(3-(trifluoromethoxy)benzyl)pyrrolidin-3-yl)-7-(tetrahydro-2H-pyran-4-yl)imidazo[5,1-f][1,2,4]triazin-4(3H)-one]	99	< 1000 nM	261	
CC1CN(Cc2cccc(C(F)(F)F)c2)CC1c1nn2c(C3CCOCC3)ncc2c(=O)[nH]1 (single isomer, unassigned; (+)) [(+)-2-((3,4-trans)-4-methyl-1-(3-(trifluoromethyl)benzyl)pyrrolidin-3-yl)-7-(tetrahydro-2H-pyran-4-yl)imidazo[5,1-f][1,2,4]triazin-4(3H)-one]	86	< 1000 nM	203	
Cc1cccc(CN2CC(C)C(c3nn4c(C5CCOCC5)ncc4c(=O)[nH]3)C2)c1 (single isomer, unassigned; (+)) [(+)-2-((3,4-trans)-4-methyl-1-(3-methylbenzyl)pyrrolidin-3-yl)-7-(tetrahydro-2H-pyran-4-yl)imidazo[5,1-f][1,2,4]triazin-4(3H)-one]	402	< 1000 nM	442	
CC1CN(c2nccc(C(F)(F)F)n2)CC1c1nn2c(C3CCOCC3)ncc2c(=O)[nH]1 (single isomer, unassigned; (+)) [(+)-2-((3,4-trans)-4-methyl-1-(4-(trifluoromethyl)pyrimidin-2-yl)pyrrolidin-3-yl)-7-(tetrahydro-2H-pyran-4-yl)imidazo[5,1-f][1,2,4]triazin-4(3H)-one]				PDE1B selectivity (versus PDE9A2) (PDE1B; [4]): 1; IC50 (PDE9A2; [5]): < 1000 nM; PDE1A selectivity (versus PDE9A2) (PDE1A; [6]): 7
CC1CN(Cc2ncn(C)n2)CC1c1nn2c(C3CCOCC3)ncc2c(=O)[nH]1 (single isomer, unassigned; (+)) [(+)-2-((3,4-trans)-4-methyl-1-((1-methyl-1H-1,2,4-triazol-3-yl)methyl)pyrrolidin-3-yl)-7-(tetrahydro-2H-pyran-4-yl)imidazo[5,1-f][1,2,4]triazin-4(3H)-one]				PDE1B selectivity (versus PDE9A2) (PDE1B; [7]): 266; IC50 (PDE9A2): < 1000 nM; PDE1A selectivity (versus PDE9A2) (PDE1A; [7]): 208
CC1CN(Cc2nc3ccccc3n2C)CC1c1nn2c(C3CCOCC3)ncc2c(=O)[nH]1 (single isomer, unassigned; (+)) [(+)-2-((3,4-trans)-4-methyl-1-((1-methyl-1H-benzo[d]imidazol-2-yl)methyl)pyrrolidin-3-yl)-7-(tetrahydro-2H-pyran-4-yl)imidazo[5,1-f][1,2,4]triazin-4(3H)-one]	356	< 1000 nM	181	
CC1CN(Cc2nccn2C)CC1c1nn2c(C3CCOCC3)ncc2c(=O)[nH]1 (single isomer, unassigned; (+)) [(+)-2-((3,4-trans)-4-methyl-1-((1-methyl-1H-imidazol-2-yl)methyl)pyrrolidin-3-yl)-7-(tetrahydro-2H-pyran-4-yl)imidazo[5,1-f][1,2,4]triazin-4(3H)-one]				PDE1B selectivity (versus PDE9A2) (PDE1B; [7]): 107; IC50 (PDE9A2): < 1000 nM; PDE1A selectivity (versus PDE9A2) (PDE1A; [7]): 197
